The nature of this data set: Ascorbic acid oxidation assay. The class given is physicochemical. Conditions: 20 μM chelate (30 mol %), 67 μM ascorbic acid in PBS, 45 minutes, FIG. 1. As to the method: The UV-Vis spectrum of an ascorbic acid solution (67 μM, 12 μg·mL-1) in phosphate buffered saline (PBS) (3 mL) was recorded. The absorbance intensity at λmax=265 nm was observed. An aliquot (30 μL) of iron chelate of ethylenediaminetetraacetic acid (FeEDTA) in PBS (2 mM, 0.7 mg·mL-1) was added to afford a catalytic quantity of FeEDTA (20 μM, 30 mol %) with respect to ascorbic acid. The absorbance intensity (λmax=265 nm) was recorded at intervals of 1 minute for a period of 45 minutes and the data normalized to the t0 absorbance. The experiment was then repeated identically using iron chelate complex FeHBEDP(OH)3 (20 μM, 30 mol %).

For `O=C([O-])CN(CCN(CC(=O)[O-])CC(=O)[O-])CC(=O)[O-].[Fe+3]` [FeEDTA, iron chelate of ethylenediaminetetraacetic acid], the “consumption of ascorbic acid” value was “consumes ascorbic acid completely”.

The values are drawn from patent US8765977B2, “Hydroxylated contrast enhancement agents and imaging method” (General Electric Company, priority 2010, dated 2014).
